Measured values reported in patent publication US6303591A, “21-hydroxy-6,19-oxidoprogesterone (21OH-6OP) and its use as medicament for treating excess of glucocorticoids” (Applied Research Systems ARS Holding NV, priority 1997, dated 2001).

Assays:
[1] = target: T1, GR from rat thymus (thymus cytosol) (Rattus norvegicus, UniProt P06536); experiment: displacement of (^3 H)-B binding to GR, rat thymus cytosol
T1 construct: Thymuses were used as a source of GR; from tissue; host or cells: thymus cytosol, adrenalectomized male Sprague-Dawley rats
T1 sequence (P06536 1-795): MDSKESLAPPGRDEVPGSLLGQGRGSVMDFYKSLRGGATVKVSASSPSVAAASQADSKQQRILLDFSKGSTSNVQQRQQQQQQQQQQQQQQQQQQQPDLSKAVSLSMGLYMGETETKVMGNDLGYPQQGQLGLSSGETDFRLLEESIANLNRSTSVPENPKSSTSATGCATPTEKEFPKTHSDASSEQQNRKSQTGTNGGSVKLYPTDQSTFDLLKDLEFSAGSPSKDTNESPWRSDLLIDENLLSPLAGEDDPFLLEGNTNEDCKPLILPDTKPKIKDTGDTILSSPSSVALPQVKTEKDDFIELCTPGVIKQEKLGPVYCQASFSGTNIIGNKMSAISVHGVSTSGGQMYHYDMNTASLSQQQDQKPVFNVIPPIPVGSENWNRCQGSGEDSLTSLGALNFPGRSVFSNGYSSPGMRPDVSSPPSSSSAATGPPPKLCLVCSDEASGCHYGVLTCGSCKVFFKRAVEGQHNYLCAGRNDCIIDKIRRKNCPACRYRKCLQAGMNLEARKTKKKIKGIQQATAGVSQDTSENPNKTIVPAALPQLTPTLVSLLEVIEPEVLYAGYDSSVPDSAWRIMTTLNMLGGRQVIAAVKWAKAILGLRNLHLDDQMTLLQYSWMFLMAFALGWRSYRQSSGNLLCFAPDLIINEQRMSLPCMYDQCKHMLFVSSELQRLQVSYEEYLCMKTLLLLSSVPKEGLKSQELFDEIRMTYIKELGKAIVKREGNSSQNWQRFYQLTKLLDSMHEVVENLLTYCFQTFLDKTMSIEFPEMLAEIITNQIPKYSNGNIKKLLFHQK
Protocol: Binding Assay: Adrenalectomized male Sprague-Dawley rats were bled to death by heart puncture. Cold 0.9% NaCI was injected profusely through the aorta until organs were completely blanched. Thymuses were used as a source of GR and kidneys as a source of MR. Homogenization and incubation conditions were performed as previously described, (14) and (15), respectively. Briefly, homogenates performed in cold TEGM buffer at pH 7.4 (0.1 M Tris-HCl, 10 mM EDTA, 10 mM α-mercaptoethanol, 20 mM Na2 MoO4, 25% glycerol, 0.1 mM PMSF, 2.0 TIU/ml aprotinin and 1 mg% Leupeptin) were centrifuged at 37,000 rev. for 30 min at 0° C. Supernatants from this centrifugation are referred to as "cytosol". […] (^3 H)-P4 binding to uterus PR was assayed on immature female rats according to Jordan et al (16).
(§1) The displacement curve of 6,19-oxidoprogesterone is included for comparative purposes.

[2] = test system: liver glycogen; experiment: liver glycogen deposition in vivo, adrenalectomized rats; set-up: species or system rat; conditions: FIG. 3-A; 100 μg steroid/100 g body weight
Protocol: FIG. 3: Biological Properties of 21OH-6OP: A) Glycogen storage in vivo: 100 μg steroid/100 g body weight of male rats were injected as indicated in Example 1. Liver glycogen was purified and quantified with Krisman's reagent (17). Controls were injected with vehicle. Results are expressed as means±SEM (n=6). (*): different from controls P<0.02. B) TAT induction in vitro: rat hepatocytes were incubated for 5 h in HAM-F12 medium in the presence of 100 nM steroid and TAT activity was measured. Results are expressed as percentage of enzyme activity (means±SEM, n=4) over controls incubated in the presence of vehicle. (*) different from controls P<0.01. C) Sodium-retaining activity: adrenalectomized rats were treated with the indicated dose of steroids. Results are expressed as the ratio of sodium-excretion rates of steroid-injected animals to the excretion rates of rats injected with vehicle.
Bioassay : Liver glycogen deposition was measured on adrenalectoniized male Sprague-Dawley rats (180-220 g) as follows: steroids were dissolved in ethanol/propylene glycol/0.9% NaCl solution (3:3:34) and 100 μg steroid/l00 g body weight were injected i.m. the previous night. On the morning of the experiment this dose was reinjected intraperitoneally. Three hours later the rats were killed by cervical dislocation and livers were immediately removed. Glycogen purification and quantification were carried out according to Krisman's method (17). Na^+ -retaining properties were measured as described (5). Tyrosine aminotransferase (TAT) was induced in rat hepatocytes isolated by the procedure of Fry et al (18). TAT activity was determined according to Granner and Tomkins (19).

[3] = target: T2, CBG partially purified from rat plasma (Rattus norvegicus, UniProt P31211); experiment: displacement of (^3 H)-B binding to partially purified CBG
T2 construct: CBG partially purified from rat plasma; from tissue; host or cells: rat plasma, partially purified
T2 sequence (P31211 23-396): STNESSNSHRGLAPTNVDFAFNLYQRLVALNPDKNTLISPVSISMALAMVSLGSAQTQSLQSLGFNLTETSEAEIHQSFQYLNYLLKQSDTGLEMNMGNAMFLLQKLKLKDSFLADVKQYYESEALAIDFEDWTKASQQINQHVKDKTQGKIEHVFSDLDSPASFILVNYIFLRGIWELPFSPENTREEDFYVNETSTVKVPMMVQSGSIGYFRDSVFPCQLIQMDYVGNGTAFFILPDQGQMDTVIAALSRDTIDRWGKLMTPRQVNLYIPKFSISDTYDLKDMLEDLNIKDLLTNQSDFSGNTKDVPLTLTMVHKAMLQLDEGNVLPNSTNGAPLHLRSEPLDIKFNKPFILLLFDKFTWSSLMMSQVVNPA
Protocol: Relative binding affinity (RBA) for partially purified CBG was determined by steroid competition for (^3 H)-B binding as described previously (14).
as §1

C[C@]12CC[C@H]3[C@@H](C[C@H]4OC[C@@]35CCC(=O)C=C45)[C@@H]1CC[C@@H]2C(=O)CO [21OH-6OP, 21-hydroxy-6,19-oxidoprogesterone]
increase of binding to GR by 21-hydroxyl, relative to 6OP ([1]; 21OH-6OP vs 6OP): over 40 times
saturation predicted according to mass action ([1]; FIG. 2 a, predicted): 95%
tracer displacement ([1]; FIG. 2 a, 720 min): 75%
Kd ([1]; rat thymus cytosol, 5 nM (^3 H)-B, 12 h at 0° C., read-out: RBA for GR (Kd)): 0.125 µM
GC response: liver glycogen [2]: neither 6OP nor 21OH-6OP evoke these responses
increase of binding to CBG by 21-hydroxyl, relative to 6OP ([3]; 21OH-6OP vs 6OP): hundred times
inhibition at 2.5 µM ([3]; 12 h, 2.5 μM, FIG. 2-B, read-out: block of CBG binding sites): ~60%
Kd ([3]; partially purified CBG, (^3 H)-B, 12 h at 0° C., read-out: RBA for CBG (Kd)): 1.27 µM
